Measured values as given in patent US20110009267A1, “Process for Improving Seedling Growth and/or Early Emergence of Crops” (Bayer CropScience AG, priority 2009, published 2011).

Experiments:
Assay type in all cases: in vivo
[1] = tested on: Soybean variety "Cordoba"; test: Plant growth test, greenhouse, seed treatment, soybean variety Cordoba; details: for Green surface, % of untreated: 15 days; for Green surface: 15 days at 20° C., 80% relative humidity
Protocol: (§1) The test is performed in the greenhouse. 7 soybean seeds per treatment of 2 varieties (Cordoba and Isidor) were sown in 5 liter pots containing 13 cm of a mix of steamed field soil and sand (1:1), 2 replicates were made. The tested compound as well as the reference active ingredient were both solved in a standard solvent used for soybean seed application and known to be safe. Seed treatment was performed with the aid of laboratory equipment. For untreated, 4 replicates were made and seeds were treated with the pure solvent. 2 fungicide concentrations were tested: 5 g a.i./100 kg and 10 g a.i./100 kg. Seeds were then covered by 5 cm of the same mix of steamed field soil and sand (1:1). Pots were incubated in the greenhouse 15 days at 20° C. and 80% relative humidity. Assessment consisted of calculation of green surface of soybean (pixel) using a digital imaging software to manage data analysis.

Soybean variety "Isidor" = test: Plant growth test, greenhouse, seed treatment, soybean variety Isidor; details: for Green surface, % of untreated: 15 days; for Green surface: 15 days at 20° C., 80% relative humidity
Protocol: as §1

soybean seeds = test: Emergence of soybean plants after seed treatment; details: soybean seeds treated

Structure (SMILES)	Green surface, % of untreated ([1]; seed treatment 5 g a.i./100kg)	Green surface ([1]; seed treatment 5 g a.i./100kg) [pixel]	Green surface, % of untreated ([1]; seed treatment 10 g a.i./100kg)	Green surface ([1]; seed treatment 10 g a.i./100kg) [pixel]	Green surface, % of untreated (Soybean variety "Isidor"; seed treatment 5 g a.i./100kg)	Green surface (Soybean variety "Isidor"; seed treatment 5 g a.i./100kg) [pixel]	Green surface, % of untreated (Soybean variety "Isidor"; seed treatment 10 g a.i./100kg)	Green surface (Soybean variety "Isidor"; seed treatment 10 g a.i./100kg) [pixel]	Emergence of the soybean plants in comparison to untreated plants (soybean seeds)
O=C(Nc1ccccc1-c1ccc(Cl)cc1)c1cccnc1Cl [Boscalid, reference compound]	109 % of untreated	74661	113 % of untreated	77243	86 % of untreated	71972	86 % of untreated	72634	–
Cc1nn(C)c(F)c1C(=O)Nc1ccccc1C(C)CC(C)C (centres unmarked) [Penflufen, N-{2-(1,3-dimethylbutyl)anilino}-1,3-dimethyl-5-fluor-4-pyrazol]	160 % of untreated	109373	158 % of untreated	108284	125 % of untreated	105395	133 % of untreated	111543	earlier emergence
